# Experiment: Clinical pharmacokinetic crossover study of IN, IM and oral naltrexone; plasma naltrexone and 6β-naltrexol by LC-MS/MS
# Excerpt: Study Goals. […] Secondary endpoints included adverse events (AEs), vital signs (heart rate, sitting blood pressure, and respiration rate), electrocardiogram (ECG), clinical laboratory changes and nasal irritation using the nasal irritation scale.
# Study design. […] This was an in-patient open-label, crossover study involving approximately 14 healthy volunteers. […] Subjects stayed in the in-patient facility for 13 days to complete the entire study. Subjects were called 3 to 5 days after discharge to inquire concerning AEs and concomitant medications since discharge. Informed consent was obtained from all subjects, and all were screened for eligibility to participate in the study, including medical history, physical examination, clinical chemistry, coagulation markers, hematology, infectious disease serology, urinalysis, urine drug and alcohol toxicology screen, vital signs and ECG.
# On days of study drug administration, a 12-lead ECG was performed approximately 1 hour prior to dosing and at approximately 1 and 4 hours post-dose. Vital signs were measured pre-dose and about 1 and 4 hours post-dose.
# Study Drugs and Dosing. […] The IN (40 mg/mL) formulations were made by the staff pharmacist at Vince & Associates; the vehicle for the IN formulations was sterile water for injection. The IM formulation (2 mg/mL) was made by the staff pharmacist at Vince & Associates; the vehicle was sterile saline for injection.
# Subjects stayed in the in-patient facility for 13 days to complete the entire study and were discharged 2 days after the fourth dose.
# PK Assessments. […] Plasma was separated from whole blood and stored frozen at […] until assayed.
# Analysis. […] Dose-adjusted values for AUCs and Cmax were calculated. The relative extent of IN and PO absorption (IN and PO versus IM) will be estimated from the dose-corrected AUCs.
# [1] = naltrexone 2 mg IM, N = 10, listed as 6β-Naltrexol
# [2] = naltrexone 4 mg IN plus […] Intravail, N = 12
compound,measurement,setting,value
Oc1ccc2c3c1O[C@H]1[C@H](O)CC[C@@]4(O)[C@@H](C2)N(CC2CC2)CC[C@]314 [6β-naltrexol],Difference between the sexes for the PK parameters,"IN, IM or PO administration, except naltrexone Cmax after 4 mg IN",no clinically meaningful difference
same,Mean Cmax of 6β-naltrexol,after the IN administration of naltrexone,approximately 3 ng/mL
same,Ratio of AUC0-inf for 6β-naltrexol compared to that of naltrexone,after the oral dose,25
same,"AUC0-inf of 6β-naltrexol, mean (CV %)","naltrexone 2 mg IM, N = 10",27.1 ng·h/mL
same,"AUC0-inf/Dose of 6β-naltrexol, mean (CV %)","naltrexone 2 mg IM, N = 10",15.0 (19.0) h · ng/mL/mg
same,"AUC0-t of 6β-naltrexol, mean (CV %)","naltrexone 2 mg IM, N = 10",25.1 (18.3) h · ng/mL
same,"AUC0-t/Dose of 6β-naltrexol, mean (CV %)","naltrexone 2 mg IM, N = 10",13.9 (18.3) h · ng/mL/mg
same,"AUCextrap of 6β-naltrexol, mean (CV %)","naltrexone 2 mg IM, N = 10",7.02 (29.4) %
same,"Cmax of 6β-naltrexol, mean (CV %)","naltrexone 2 mg IM, N = 10",1.5 ng/mL
same,"Cmax/Dose of 6β-naltrexol, mean (CV %)","naltrexone 2 mg IM, N = 10",0.838 ng/mL/mg
same,"Tmax of 6β-naltrexol, median (minimum, maximum)","naltrexone 2 mg IM, N = 10",3.00 h
same,"t1/2 of 6β-naltrexol, mean (CV %)","naltrexone 2 mg IM, N = 10",12.4 (13.2) h
same,"λz of 6β-naltrexol, mean (CV %)","naltrexone 2 mg IM, N = 10",0.0570 (14.8) 1/h
same,"Cmax of 6β-naltrexol, mean (CV %)",[1],1.52 (26.8) ng/mL
same,"Cmax/Dose of 6β-naltrexol, mean (CV %)",[1],0.838 (26.8) ng/mL/mg
same,Mean concentration of 6β-naltrexol,"naltrexone 2 mg IN, hour 0",0.0661 ng/mL
same,Mean concentration of 6β-naltrexol,"naltrexone 2 mg IN, hour 0.042",0.0627 ng/mL
same,Mean concentration of 6β-naltrexol,"naltrexone 2 mg IN, hour 0.083",0.12 ng/mL
same,Mean concentration of 6β-naltrexol,"naltrexone 2 mg IN, hour 0.17",0.283 ng/mL
same,Mean concentration of 6β-naltrexol,"naltrexone 2 mg IN, hour 0.25",0.454 ng/mL
same,Mean concentration of 6β-naltrexol,"naltrexone 2 mg IN, hour 0.33",0.677 ng/mL
same,Mean concentration of 6β-naltrexol,"naltrexone 2 mg IN, hour 0.5",0.852 ng/mL
same,Mean concentration of 6β-naltrexol,"naltrexone 2 mg IN, hour 0.75",1.08 ng/mL
same,Mean concentration of 6β-naltrexol,"naltrexone 2 mg IN, hour 1",1.1 ng/mL
same,Mean concentration of 6β-naltrexol,"naltrexone 2 mg IN, hour 2",1.39 ng/mL
same,Mean concentration of 6β-naltrexol,"naltrexone 2 mg IN, hour 3",1.48 ng/mL
same,Mean concentration of 6β-naltrexol,"naltrexone 2 mg IN, hour 4",1.46 ng/mL
same,Mean concentration of 6β-naltrexol,"naltrexone 2 mg IN, hour 6",1.3 ng/mL
same,Mean concentration of 6β-naltrexol,"naltrexone 2 mg IN, hour 8",1.08 ng/mL
same,Mean concentration of 6β-naltrexol,"naltrexone 2 mg IN, hour 12",0.81 ng/mL
same,Mean concentration of 6β-naltrexol,"naltrexone 2 mg IN, hour 16",0.595 ng/mL
same,Mean concentration of 6β-naltrexol,"naltrexone 2 mg IN, hour 24",0.365 ng/mL
same,Mean concentration of 6β-naltrexol,"naltrexone 2 mg IN, hour 30",0.255 ng/mL
same,Mean concentration of 6β-naltrexol,"naltrexone 2 mg IN, hour 36",0.18 ng/mL
same,Mean concentration of 6β-naltrexol,"naltrexone 2 mg IN, hour 48",0.106 ng/mL
same,Mean concentration of 6β-naltrexol,"naltrexone 4 mg IN + […] Intravail, hour 0",0.0682 ng/mL
same,Mean concentration of 6β-naltrexol,"naltrexone 4 mg IN + […] Intravail, hour 0.042",0.082 ng/mL
same,Mean concentration of 6β-naltrexol,"naltrexone 4 mg IN + […] Intravail, hour 0.083",0.238 ng/mL
same,Mean concentration of 6β-naltrexol,"naltrexone 4 mg IN + […] Intravail, hour 0.17",0.994 ng/mL
same,Mean concentration of 6β-naltrexol,"naltrexone 4 mg IN + […] Intravail, hour 0.25",1.86 ng/mL
same,Mean concentration of 6β-naltrexol,"naltrexone 4 mg IN + […] Intravail, hour 0.33",2.55 ng/mL
same,Mean concentration of 6β-naltrexol,"naltrexone 4 mg IN + […] Intravail, hour 0.5",2.84 ng/mL
same,Mean concentration of 6β-naltrexol,"naltrexone 4 mg IN + […] Intravail, hour 0.75",2.93 ng/mL
same,Mean concentration of 6β-naltrexol,"naltrexone 4 mg IN + […] Intravail, hour 1",2.73 ng/mL
same,Mean concentration of 6β-naltrexol,"naltrexone 4 mg IN + […] Intravail, hour 2",2.9 ng/mL
same,Mean concentration of 6β-naltrexol,"naltrexone 4 mg IN + […] Intravail, hour 3",2.61 ng/mL
same,Mean concentration of 6β-naltrexol,"naltrexone 4 mg IN + […] Intravail, hour 4",2.45 ng/mL
same,Mean concentration of 6β-naltrexol,"naltrexone 4 mg IN + […] Intravail, hour 6",2.03 ng/mL
same,Mean concentration of 6β-naltrexol,"naltrexone 4 mg IN + […] Intravail, hour 8",1.67 ng/mL
same,Mean concentration of 6β-naltrexol,"naltrexone 4 mg IN + […] Intravail, hour 12",1.25 ng/mL
same,Mean concentration of 6β-naltrexol,"naltrexone 4 mg IN + […] Intravail, hour 16",0.923 ng/mL
same,Mean concentration of 6β-naltrexol,"naltrexone 4 mg IN + […] Intravail, hour 24",0.618 ng/mL
same,Mean concentration of 6β-naltrexol,"naltrexone 4 mg IN + […] Intravail, hour 30",0.457 ng/mL
same,Mean concentration of 6β-naltrexol,"naltrexone 4 mg IN + […] Intravail, hour 36",0.312 ng/mL
same,Mean concentration of 6β-naltrexol,"naltrexone 4 mg IN + […] Intravail, hour 48",0.175 ng/mL
same,"AUC0-inf of 6β-naltrexol, mean (CV %)",[2],46.3 (18.3) h · ng/mL
same,"AUC0-inf/Dose of 6β-naltrexol, mean (CV %)",[2],12.8 (18.3) h · ng/mL/mg
same,"AUC0-t of 6β-naltrexol, mean (CV %)",[2],43.0 (17.4) h · ng/mL
same,"AUC0-t/Dose of 6β-naltrexol, mean (CV %)",[2],11.9 (17.4) h · ng/mL/mg
same,"AUCextrap of 6β-naltrexol, mean (CV %)",[2],7.02 (37.3) %
same,"Cmax of 6β-naltrexol, mean (CV %)",[2],3.29 (23.7) ng/mL
same,"Cmax/Dose of 6β-naltrexol, mean (CV %)",[2],0.908 (23.7) ng/mL/mg
same,"Tmax of 6β-naltrexol, median (minimum, maximum)",[2],0.75 h
same,"t1/2 of 6β-naltrexol, mean (CV %)",[2],12.8 (14.6) h

# Reference: patent publication US20210077382A1, “COMPOSITIONS, DEVICES, AND METHODS FOR THE TREATMENT OF OPIOID-RECEPTOR-MEDIATED CONDITIONS” (Opiant Phamaceuticals, Inc., priority 2016, published 2021)
